Data from patent US9757477B2, “Imaging brown adipose tissue with curcumin derivatives” (The General Hospital Corporation, priority 2013, dated 2017).
Values joined by “and” are separate entries in the source; they are usually repeats but may differ in a detail not shown here. Equal values may be shown once.

What was measured:
inguinal sWAT = assay: Monitoring browning of subcutaneous WAT after CL 316,243 treatment; assay type: in vivo, C57BL6 mice; settings: CL 316,243 1.0 mg/kg i.p. for 12 days
Protocol: (§1) Two-month old C57BL6 mice (n=5) were i.p. injected CL 316,243 (100 uL, 1.0 mg/kg) for 12 days, and the control mice (n=5) were i.p. injected with saline. On the 13th day, both groups were imaged after i.v. injection of CRANAD-29. Images were acquired at 1-, 2-, 4-hours after the probe injection. After the last imaging session, inguinal sWAT were dissected after scarification of the mice, and the dissected sWAT tissue was subjected to qPCR for UCP-1 expression and H&E staining

UCP-1 = assay: qPCR for UCP-1 expression in dissected sWAT; assay type: in vivo, C57BL6 mice; settings: CL 316,243 1.0 mg/kg i.p. for 12 days
Protocol: as §1

[1] = Excitation and emission wavelengths of BAT imaging agents; assay type: physicochemical
Protocol: In some embodiments, the methods include irradiating the mammal with light of the appropriate wavelength to excite the BAT imaging agent, and detecting emissions therefrom.
Fluorescent dyes were purchased from Exciton Inc. (Dayton, Ohio) and Invitrogen. The reagents used for the synthesis were purchased from Aldrich and used without further purification. Column chromatography was performed on silica gel (SiliCycle Inc., 60 Å, […]) slurry packed into glass columns. 1H, 13C NMR spectra were recorded at 500 MHz and 125 MHz respectively, and reported in ppm downfield from tetramethylsilane. Fluorescence studies were carried out using a F-4500 Fluorescence Spectrophotometer (Hitachi). Mass spectra were obtained at Harvard University, Department of Chemistry Instrumentation Facility. Microscopic images were acquired with Nikon Eclipse 50i microscope. In vivo NIR imaging was performed using the IVIS® Spectrum animal imaging system (Caliper LifeSciences, Perkin Elmer, Hopkinton, Mass.), and data analysis was conducted using LivingImage® 4.2.1 software.

brown adipose cells = assay: Ex vivo histology of dissected BAT slices; parameters: species or system mice; settings: fluorescence microscopy
Protocol: (§2) Next the time course of CRANAD-2 and CRANAD-3 accumulation in BAT area was investigated. […] Similarly, the signal of CRANAD-3 reached the uptake peak around one hour, and then gradually washed out (FIG. 8c-d). Accumulation of CRANAD-2 and -3 in BAT was further confirmed with ex vivo histology of the dissected BAT slices, performed as follows. The dissected BAT was fixed with 4% formalin at 4° C. overnight, and then embedded into OCT. BAT tissue was cut into 7 micron thickness slices, washed with PBS buffer, and co-stained with DAPI (Vectra Shield, Vector Lab, Burlingame, Calif.). Images were acquired with fast exposure to capture the dye signal in the oil droplets. To outline cell membrane cell autofluorescence was captured with long exposure after image of the dye signal from oil droplets was already acquired. To further validate the capacity of CRANAD-29 for BAT labeling, ex vivo histological microscopic imaging with CRANAD-29 was conducted. […] Gold standard H&E staining also provided similar images (FIG. 10a). […] The injection dose of CRANAD-29 was optimized, and the fluorescence signal reached its plateau at 0.4 mg/kg (FIG. 11). In the following studies, 0.1 mg/kg dose was used.

interscapular BAT [2] = assay: Top-down whole-organism NIR fluorescence screening of dyes (ROI1/ROI2 contrast); assay type: in vivo, nude mice; settings: for Ratio No 1 (ROI1/ROI2 average fluorescence intensity) / Ratio No 2 (ROI1/ROI2 average fluorescence intensity) / Ratio No 3 (ROI1/ROI2 average fluorescence intensity) / Ratio AVERAGE (mean ratio ROI1/ROI2): nude mice, one hour post-injection; for Ratio No 1 (ROI1/ROI2 average fluorescence intensity) / Ratio No 2 (ROI1/ROI2 average fluorescence intensity) / Ratio No 3 (ROI1/ROI2 average fluorescence intensity): 10 μg/mouse i.v.; for Ratio No 1 (ROI1/ROI2 average fluorescence intensity): first excitation/emission filter pair; for Ratio No 2 (ROI1/ROI2 average fluorescence intensity): second excitation/emission filter pair; for Ratio No 3 (ROI1/ROI2 average fluorescence intensity): third excitation/emission filter pair; for Ratio AVERAGE (mean ratio ROI1/ROI2): i.v., mean of three filter pairs, hit threshold >1.10
Protocol: 38 fluorescent dyes from commercial resources and from the inventors' laboratory were screened. Dyes with excitation range of 550-745 nm, emission range of 600-840 nm, and with molecular weight of less than 700 Da (except Cy5.5) (representative dyes are listed in FIG. 1d and the full list is shown in Table 2). Their hydrophobicities were not determined. The library was screened by intravenous tail injection of compounds into nude mice (10μg/mouse). Each dye was imaged with three optimized excitation/emission filter-pairs, and images at one hour after i.v. injection were acquired.
Top-down whole organism screening was performed as follows. Nude mice (nu/nu COX7) were purchased from Massachusetts General Hospital and Balb/c mice were from Jackson Laboratory. All animal experimental procedures were approved by the Institutional Animal Care and Use Committee (IACUC) at Massachusetts General Hospital. Dye stock solutions were prepared in DMSO. The final injection solution (0.1 mg/ml) was freshly prepared in a mixed solution of 20% DMSO, 20% Cremophor EL and 60% saline. Nude mice (n=5) were injected with a 100 μL dye solution via tail vein. For each imaging session, mice were anesthetized with a mixture of oxygen and isoflurane for 5 minutes, and then positioned into the imaging chamber of IVIS® Spectrum in vivo pre-clinical imaging system. Images were acquired at one-hour post-injection using sequence imaging with three excitation/emission filter pairs for each dye.
Hits selection was performed as follows. Hits from cell- or protein-based screening are usually selected by setting certain threshold. In the case of the top-down imaging screening, two methods were used (threshold and visible contrast) to select hits. First, three images obtained with three excitation/emission pairs were selected for each dye. These ex/em pairs were selected from the closest excitation and emission wavelengths of the tested dyes. For instance, 605/660 nm, 605/680 nm, 640/680 nm were selected for image acquisition of Nile blue (625/660 nm). The quantification of contrast for each image was calculated as a ratio of two ROIs (region of interest). ROI1 reflected the average signal from interscapular BAT and ROI2 was the average signal of the area that included BAT and white adipose tissue (WAT) around the interscapular site (FIG. 1b, left). The averaged fluorescent signal of ROI was used instead of the total signal, because the total signal depends on the area of ROI, whereas the averaged signal reflects the density of signal. The ratio of ROI1/ROI2 could reflect the signal/noise ratio of the tested probe, and could also reflect the selectivity of the probe for BAT over WAT. For each dye, three ROI1/ROI2 ratios obtained with the three filter pairs were calculated. The mean of the ratios was used as the threshold. If the mean ratio was >1.10, the dye was selected as a potential positive hit (FIG. 1c). Since the contrast of a dye in the top-down screening is in the visible range, the visible contrast around the interscapular BAT area was also tested for the hits with the mean ratio of >1.10. If both mean ratio and the visible contrast were positive, then the hit was subjected to re-testing procedure to validate its reliability as described below.
Although CRANAD-2 and CRANAD-3 were able to provide certain contrast for BAT in vivo, their excitation and emission wavelengths were still shorter than required for an ideal NIR imaging probe (both excitation and emission >640 nm). […] To seek better probes, a sub-library was synthesized based on the structures of the lead probes CRANAD-2 and -3. CRANAD-6, -19, -22, -24, -26, -32 and -43 were synthesized and tested (images and chemical structures, excitation and emission spectra are shown in FIG. 9 a-e). […] However, the ROI1/ROI2 ratio of CRANAD-22 was not improved (FIG. 9c).

[3] = system: BAT cells induced from wild-type brown preadipocytes; assay: In vitro staining of BMPs-induced BAT cells (live cell confocal); assay type: cell-based; settings: live cell confocal images
interscapular BAT [4] = assay: Time course and dose optimization of probe signal in BAT area after i.v. injection; assay type: in vivo, mice; settings: mouse, in vivo, iv
Protocol: as §2

interscapular BAT [5] = assay: Re-testing of hits with stepwise dissection and NIR imaging; assay type: in vivo, mice
Protocol: Like protein/cell-based screening, hit re-testing experiments were conducted to validate the reliability of this approach. CRANAD-2, -3, LDS 722 and Rhodamine 640 were subjected to re-testing by repeating the above imaging procedure. Images were acquired one hour after probe injection.
Next, stepwise dissection and imaging were performed to track the source of the fluorescence contrast at the interscapular site. Skin and the thin WAT layer that covers BAT were first removed, and then BAT was dissected, and NIR images were captured at each step. […] The signal contribution from BAT (R(BAT)) was roughly estimated using the ratio of fluorescence signals acquired after (F(BAT)) and before (F(intact)) the first step dissection of skin and WAT.

interscapular BAT [6] = assay: PET imaging with 18F-labeled curcumin analogue; assay type: in vivo, mice; settings: 100-180 μCi tail vein
Protocol: PET imaging was conducted with a microPET P4 system (Concorde Microsystems Incorporated, Knoxville, Tenn., USA). The imaging parameters of this system are in-plane and axial resolution of 1.2 mm full width at half maximal count. Prior to PET imaging, mice were anesthetized with isoflurane/O2, and then fixed to the imaging table with a custom-fabricated mold. Injection catheter was placed in tail vein for administration of the radiotracer. Subsequently, CRANAD-5F^18 (100-180 μCi) was injected into the tail vein and volumetric dynamic data were acquired in list-mode format for 120 min. Imaging data were corrected for uniformity, attenuation, decay, and acquisition time. PET images were reconstructed using filtered back projection with a Ramp filter (cutoff value of 0.5). The software, ASIPro 6.0, was provided by the microPET manufacturer.

[7] = system: undifferentiated 3T3-L1 cells; assay: Probe uptake in undifferentiated 3T3-L1 cells (IVIS imaging); assay type: cell-based
Protocol: (§3) To investigate the facilitated diffusion of CRANAD-2, the time courses of CRANAD-2 uptake in 3T3-L1 cells were compared before and after differentiation. Two-photon imaging for 3T3-L1 cells was performed as follows. Fibroblast 3T3-L1 cells were differentiated following the protocol provided by Zenbio, Inc. (protocol No. ZBM0009.02). Ten microliters of CRANAD-2 (250 μM in DMSO) was added to the differentiated cells (1.0 ml). Cells were imaged after 10 min of incubation. A 940 nm laser was first used to capture an image for CRANAD-2 in 570-620 nm channel (Prairie Two-photon microscope, Middleton, Wis.). Next, the laser was tuned to 750 nm to capture autofluorescence of the cells to outline cell morphology.
(§4) IVIS imaging of 3T3-L1 cells with CRANAD-2 was performed as follows. To a 6-well plate seeded with preadipocytes or differentiated adipocytes, a 10 μL solution of CRANAD-2 (250 μM in DMSO) was added. The plate was subjected to imaging using IVIS imaging system with Ex=605 nm, Em=660 nm before and after addition of CRANAD-2. For triglyceride competition, the same protocol for two-photon imaging was used. The images were acquired at 20 min after addition of CRANAD-2. Studies were performed in triplicate.
(§5) The uptake of CRANAD-29 in 3T3-L1 cells before and after differentiation was compared. IVIS imaging of 3T3-L1 cells with CRANAD-29 was performed as follows. To a 6-well plate seeded with preadipocytes or differentiated adipocytes, a 10 μL solution of CRANAD-29 (250 μM in DMSO) was added. The plate was subjected to imaging using IVIS imaging system with Ex=640 nm, Em=700 nm before and after addition of CRANAD-29. For triglyceride competition and Hexarelin inhibition, the similar protocol for CRANAD-2 imaging was used. The final concentration of hexarelin was 12.5 μM, and the images were acquired at 3 hours after addition of CRANAD-29 and triglyceride/Hexarelin. Studies were performed in triplicate.

[8] = system: differentiated 3T3-L1 cells; assay: Probe uptake in differentiated 3T3-L1 cells (IVIS and two-photon imaging, competition); assay type: cell-based
Protocol: as §3
For triglyceride competition, stock solutions of CRANAD-2 (250 μM) and triglyceride (5 mM) in DMSO were prepared. Before imaging, 10 μl of the stock solution was added to the cells.
as §4, §5

With `C[C@H](Cc1ccc2c(c1)OC(C(=O)[O-])(C(=O)[O-])O2)NC[C@H](O)c1cccc(Cl)c1.[Na+].[Na+]` [CL 316,243] the “H&E staining of sWAT slice of treated mice” value (inguinal sWAT) was “cells with multilocular lipid droplets” and the “UCP-1 mRNA level in sWAT, treated mice vs control group” value (UCP-1) was 7.9 fold.
For `CCN(CC)c1ccc(/C=C/C2=CC(/C=C/c3ccc(N(CC)CC)nc3)=[O+][B-](F)(F)O2)cn1` [CRANAD-3], the “Emission λ” value [1] was 660 nm, the “Excitation λ” value [1] was 570 nm and the “labeling in ex vivo histology of BAT slices” value (brown adipose cells) was “labeled oil droplets in brown adipose cells”. For the same compound, the “visible contrast around the interscapular BAT area” value (interscapular BAT [2]; in vivo NIR images) was “best contrast and clear triangular contour”, the “Ratio No 1 (ROI1/ROI2 average fluorescence intensity)” value (interscapular BAT [2]) was 1.34E+00 and the “Ratio No 2 (ROI1/ROI2 average fluorescence intensity)” value (interscapular BAT [2]) was 1.33E+00. The “Ratio No 3 (ROI1/ROI2 average fluorescence intensity)” value (interscapular BAT [2]) was 1.31E+00, the “Ratio AVERAGE (mean ratio ROI1/ROI2)” value (interscapular BAT [2]) was 1.32 and 1.32E+00 and the “staining of oil droplets in BAT cells” value [3] was “able to clearly label oil droplets in BAT cells”. The “time of uptake peak in BAT area” value (interscapular BAT [4]) was “around one”, the “R(BAT), signal contribution from BAT, F(BAT)/F(intact)” value (interscapular BAT [5]; fluorescence after vs before dissection of skin and WAT, roughly estimated) was 0.51 and the “contrast among the re-tested dyes” value (interscapular BAT [5]; images one hour after probe injection) was “highest contrast”. For the same compound, the “fluorescence signal from BAT (before vs after BAT removal)” value (interscapular BAT [5]; stepwise dissection) was “able to label BAT” and the “selectivity for BAT (over WAT)” value (interscapular BAT [5]; stepwise dissection) was “low”.
In the case of `CN(C)c1ccc(C=CC(O)=CC(=O)C=Cc2ccc(N(C)CC[18F])cc2)cc1` [CRANAD-5F], the “in vivo PET imaging of BAT” value (interscapular BAT [6]) was “clearly highlighted BAT at the interscapular site”.
In the case of `CC[N+](CC)=c1ccc2nc3c(cc(N)c4ccccc43)oc-2c1` [Nile Blue], the “uptake in undifferentiated cells over the time course” value [7] was “rapidly reached the plateau”, the “Ratio No 1 (ROI1/ROI2 average fluorescence intensity)” value (interscapular BAT [2]) was 1.00E+00 and the “Ratio No 2 (ROI1/ROI2 average fluorescence intensity)” value (interscapular BAT [2]) was 9.89E−01. For the same compound, the “Ratio No 3 (ROI1/ROI2 average fluorescence intensity)” value (interscapular BAT [2]) was 9.62E−01, the “Ratio AVERAGE (mean ratio ROI1/ROI2)” value (interscapular BAT [2]) was 9.84E−01 and the “uptake in differentiated cells over the time course” value ([8]; differentiated 3T3-L1 cells) was “rapidly reached the plateau”. For the same compound, the “uptake with triglyceride competition” value ([8]; triglyceride added with probe, two-photon microscopy and IVIS) was “no significant decrease in uptake”.
